Measurements: patent US9073940B2, “Tricyclic pyrazol amine derivatives” (MERCK SERONO SA, priority 2009, dated 2015)
Where a name gives a salt, the structure may show the parent alone.

What follows are compounds tested on 4 PI3K isoforms (Human recombinant GST-PI3K) (assay: PI3K scintillation proximity assay, best IC50 obtained with the four isoforms (alpha, beta, delta, gamma)). Settings: best IC50 obtained with the four isoforms of PI3K; read-out: Best potency measured on the 4 PI3K isoforms.
Assay type: biochemical

Compound	IC50 [µM]
3-(Morpholin-4-ylcarbonyl)-1-phenyl-4H- imidazo[5,1-c][1,4]benzothiazine 5,5-dioxide [Example 486]	2.74
O=C(c1nn([C@@H]2CCCN(CCC3CCOCC3)C2)c2c1CS(=O)(=O)c1ccccc1-2)N1CCOCC1 (single isomer, unassigned) [Example 307, 3-(morpholin-4-ylcarbonyl)-1-{1-[2-(tetrahydro-2H-pyran-4-yl)ethyl]piperidin-3-yl}-1,4-dihydrothiochromeno[4,3-c]pyrazole 5,5-dioxide]	2.2
O=C(c1nn([C@@H]2CCCN(CCC3CCOCC3)C2)c2c1CS(=O)(=O)c1c(F)cccc1-2)N1CCOCC1 (single isomer, unassigned) [Example 343, 6-fluoro-3-(morpholin-4-ylcarbonyl)-1-{1-[2-(tetrahydro-2H-pyran-4-yl)ethyl]piperidin-3-yl}-1,4-dihydrothiochromeno[4,3-c]pyrazole 5,5-dioxide hydrochloride salt]	1.92
COCCN1CCC[C@@H](n2nc(C(=O)N3CCOCC3)c3c2-c2ccccc2S(=O)(=O)C3)C1 (single isomer, unassigned) [Example 347, 1-[1-(2-methoxyethyl)piperidin-3-yl]-3-(morpholin-4-ylcarbonyl)-1,4-dihydrothiochromeno[4,3-c]pyrazole 5,5-dioxide]	3.55
O=C(c1nn([C@@H]2CCCN(CCN3CCOCC3)C2)c2c1CS(=O)(=O)c1ccccc1-2)N1CCOCC1 (single isomer, unassigned) [Example 348, 3-(morpholin-4-ylcarbonyl)-1-[1-(2-morpholin-4-ylethyl)piperidin-3-yl]-1,4-dihydrothiochromeno[4,3-c]pyrazole 5,5-dioxide]	1.28
O=C(c1nn([C@@H]2CCN(C3CCOCC3)C2)c2c1CS(=O)(=O)c1c(F)cccc1-2)N1CCOCC1 (single isomer, unassigned) [Example 353, 6-fluoro-3-(morpholin-4-ylcarbonyl)-1-[1-(tetrahydro-2H-pyran-4-yl)pyrrolidin-3-yl]-1,4-dihydrothiochromeno[4,3-c]pyrazole 5,5-dioxide hydrochloride salt]	2.04
O=C(c1nn([C@@H]2CCN(CCC3CCOCC3)C2)c2c1CS(=O)(=O)c1c(F)cccc1-2)N1CCOCC1 (single isomer, unassigned) [Example 356, 6-fluoro-3-(morpholin-4-ylcarbonyl)-1-{1-[2-(tetrahydro-2H-pyran-4-yl)ethyl]pyrrolidin-3-yl}-1,4-dihydrothiochromeno[4,3-c]pyrazole 5,5-dioxide hydrochloride salt]	1.69
O=C(c1nn([C@@H]2CCCNC2)c2c1CS(=O)(=O)c1ccccc1-2)N1CCOCC1 (single isomer, unassigned) [Example 358]	3
O=C(c1nn([C@H]2CCCNC2)c2c1CS(=O)(=O)c1ccccc1-2)N1CCOCC1 (single isomer, unassigned) [Example 359]	1.06
O=C(c1nn([C@@H]2CCCN(CCF)C2)c2c1CS(=O)(=O)c1ccccc1-2)N1CCOCC1 (single isomer, unassigned) [Example 366]	7.97
COc1ccc2c(c1)S(=O)(=O)Cc1c(C(=O)N3CCOCC3)nn([C@@H]3CCCN(CCC4CCOCC4)C3)c1-2 (single isomer, unassigned) [Example 373]	10.3
O=C(c1nn([C@@H]2CCCN(C3CCCOC3)C2)c2c1CS(=O)(=O)c1ncccc1-2)N1CCOCC1 (single isomer, unassigned) [Example 379, 3-(morpholin-4-ylcarbonyl)-1-[1-(tetrahydro-2H-pyran-3-yl)piperidin-3-yl]-1,4-dihydropyrazolo[3′,4′:4,5]thiopyrano[2,3-b]pyridine 5,5-dioxide]	2.93

Now those with a lower IC50, led by results:

IC50 [µM]	Compound
0.32	O=C(c1nn(C2CCCN(CCF)C2)c2c1CS(=O)(=O)c1ccccc1-2)N1CCOCC1 (single isomer, unassigned) [Example 221, 1-[1-(2-fluoroethyl)piperidin-3-yl]-3-(morpholin-4-ylcarbonyl)-1,4-dihydrothiochromeno[4,3-c]pyrazole 5,5-dioxide]
0.072	O=C(c1nn(C2CCCN(CCN3CC[C@H](F)C3)C2)c2c1CS(=O)(=O)c1ccccc1-2)N1CCOCC1 (single isomer, unassigned) [Example 282]
0.034	O=C(c1nn(C2CCCN(CCN3CC[C@@H](F)C3)C2)c2c1CS(=O)(=O)c1ccccc1-2)N1CCOCC1 (single isomer, unassigned) [Example 283]
0.034	O=C(c1nn([C@H]2CCCN(CCC3CCOCC3)C2)c2c1CS(=O)(=O)c1ccccc1-2)N1CCOCC1 (single isomer, unassigned) [Example 306, 3-(morpholin-4-ylcarbonyl)-1-{1-[2-(tetrahydro-2H-pyran-4-yl)ethyl]piperidin-3-yl}-1,4-dihydrothiochromeno[4,3-c]pyrazole 5,5-dioxide]
0.006	O=C(c1nn([C@H]2CCCN(CCC3CCOCC3)C2)c2c1CS(=O)(=O)c1c(F)cccc1-2)N1CCOCC1 (single isomer, unassigned) [Example 344, 6-fluoro-3-(morpholin-4-ylcarbonyl)-1-{1-[2-(tetrahydro-2H-pyran-4-yl)ethyl]piperidin-3-yl}-1,4-dihydrothiochromeno[4,3-c]pyrazole 5,5-dioxide]
0.092	O=C(c1nn([C@H]2CCN(CCC3CCOCC3)C2)c2c1CS(=O)(=O)c1c(F)cccc1-2)N1CCOCC1 (single isomer, unassigned) [Example 354, 6-fluoro-3-(morpholin-4-ylcarbonyl)-1-{1-[2-(tetrahydro-2H-pyran-4-yl)ethyl]pyrrolidin-3-yl}-1,4-dihydrothiochromeno[4,3-c]pyrazole 5,5-dioxide hydrochloride salt]
0.017	O=C(c1nn([C@H]2CCCN(CCN3CC(F)(F)C3)C2)c2c1CS(=O)(=O)c1ccccc1-2)N1CCOCC1 (single isomer, unassigned) [Example 362, 1-{1-[2-(3,3-difluoroazetidin-1-yl)ethyl]piperidin-3-yl}-3-(morpholin-4-ylcarbonyl)-1,4-dihydrothiochromeno[4,3-c]pyrazole 5,5-dioxide]
0.025	O=C(c1nn([C@H]2CCCN(CCN3CCC(F)CC3)C2)c2c1CS(=O)(=O)c1ccccc1-2)N1CCOCC1 (single isomer, unassigned) [Example 363, 1-{1-[2-(4-fluoropiperidin-1-yl)ethyl]piperidin-3-yl}-3-(morpholin-4-ylcarbonyl)-1,4-dihydrothiochromeno[4,3-c]pyrazole 5,5-dioxide]
0.014	O=C(c1nn([C@H]2CCCN(CCN3CC[C@@H](F)C3)C2)c2c1CS(=O)(=O)c1ccccc1-2)N1CCOCC1 (single isomer, unassigned) [Example 364, 1-(1-{2-[3-fluoropyrrolidin-1-yl]ethyl}piperidin-3-yl)-3-(morpholin-4-ylcarbonyl)-1,4-dihydrothiochromeno[4,3-c]pyrazole 5,5-dioxide]
0.032	O=C(c1nn([C@H]2CCCN(CCN3CCC(F)C3)C2)c2c1CS(=O)(=O)c1ccccc1-2)N1CCOCC1 (single isomer, unassigned) [Example 367]
0.027	COc1ccc2c(c1)S(=O)(=O)Cc1c(C(=O)N3CCOCC3)nn([C@H]3CCCN(CCC4CCOCC4)C3)c1-2 (single isomer, unassigned) [Example 369]
0.073	CC1(C)CN(CCN2CCC[C@H](n3nc(C(=O)N4CCOCC4)c4c3-c3ccccc3S(=O)(=O)C4)C2)CCO1 (single isomer, unassigned) [Example 370, 1-{1-[2-(2,2-dimethylmorpholin-4-yl)ethyl]piperidin-3-yl}-3-(morpholin-4-ylcarbonyl)-1,4-dihydrothiochromeno[4,3-c]pyrazole 5,5-dioxide]
0.83	O=C(c1nn([C@@H]2CCCN(CC3CCOCC3)C2)c2c1CS(=O)(=O)c1ncccc1-2)N1CCOCC1 (single isomer, unassigned) [Example 371, 3-(morpholin-4-ylcarbonyl)-1-[1-(tetrahydro-2H-pyran-4-ylmethyl)piperidin-3-yl]-1,4-dihydropyrazolo[3′,4′:4,5]thiopyrano[2,3-b]pyridine 5,5-dioxide]
0.2	O=C(c1nn([C@H]2CCCN(CCF)C2)c2c1CS(=O)(=O)c1ccccc1-2)N1CCOCC1 (single isomer, unassigned) [Example 372, 1-[1-(2-fluoroethyl)piperidin-3-yl]-3-(morpholin-4-ylcarbonyl)-1,4-dihydrothiochromeno[4,3-c]pyrazole 5,5-dioxide]
0.013	O=C(c1nn([C@H]2CCCN(CC3CCOCC3)C2)c2c1CS(=O)(=O)c1ncccc1-2)N1CCOCC1 (single isomer, unassigned) [Example 376, 3-(morpholin-4-ylcarbonyl)-1-[1-(tetrahydro-2H-pyran-4-ylmethyl)piperidin-3-yl]1,4-dihydropyrazolo[3′,4′:4,5]thiopyrano[2,3-b]pyridine 5,5-dioxide]
0.101	CC1COCCN1CCN1CCC[C@H](n2nc(C(=O)N3CCOCC3)c3c2-c2ccccc2S(=O)(=O)C3)C1 (single isomer, unassigned) [Example 377, 1-{1-[2-(3-methylmorpholin-4-yl)ethyl]piperidin-3-yl}-3-(morpholin-4-ylcarbonyl)-1,4-dihydrothiochromeno[4,3-c]pyrazole 5,5-dioxide]
0.065	C[C@@H]1CN(CCN2CCC[C@H](n3nc(C(=O)N4CCOCC4)c4c3-c3ccccc3S(=O)(=O)C4)C2)C[C@H](C)O1 (single isomer, unassigned) [Example 378]
0.036	O=C(c1nn([C@H]2CCCN(C3CCCOC3)C2)c2c1CS(=O)(=O)c1ncccc1-2)N1CCOCC1 (single isomer, unassigned) [Example 381, 3-(morpholin-4-ylcarbonyl)-1-[1-(tetrahydro-2H-pyran-3-yl)piperidin-3-yl]-1,4-dihydropyrazolo[3′,4′:4,5]thiopyrano[2,3-b]pyridine 5,5-dioxide]
